Results taken from the supplement of paper PMC10307832.

What was measured:
Experiment in all cases: relative viability (nuclei count vs DMSO), 5 days (fraction); higher = more cells survive
[1] = tested on: A-427
Method in brief: (§1)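 Nuclei were stained with Hoechst during a one-step fixation (final 0.05% Triton X-100, 1% formaldehyde, 1 ug/ml Hoechst) carried out 5 days after dosing, then counted on 4× images. The cells, lung cancer lines in 1536-well plates, had been dosed by pin tool the day after seeding with one drug alone or a fixed anchor-drug dose plus five library-drug doses (not always all listed) in √10 steps. Relative viability is the nuclei count in treated wells divided by that in vehicle wells, and each value is the median of duplicate plates.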

[2] = tested on: NCI-H2342
Method in brief: as §1

[3] = tested on: NCI-H1975
Method in brief: as §1

[4] = tested on: SW 900
Method in brief: as §1

[5] = tested on: NCI-H1792
Method in brief: as §1

[6] = tested on: NCI-H1734
Method in brief: as §1

[7] = tested on: NCI-H2405
Method in brief: as §1

[8] = tested on: LC-2-ad
Method in brief: as §1

[9] = tested on: NCI-H520
Method in brief: as §1

[10] = tested on: COR-L 105
Method in brief: as §1

[11] = tested on: CAL-12T
Method in brief: as §1

[12] = tested on: SW 1573
Method in brief: as §1

[13] = tested on: HCC-15
Method in brief: as §1

[14] = tested on: HCC-44
Method in brief: as §1

[15] = tested on: NCI-H838
Method in brief: as §1

[16] = tested on: NCI-H1395
Method in brief: as §1

[17] = tested on: LCLC-97TM1
Method in brief: as §1

[18] = tested on: UMC-11
Method in brief: as §1

[19] = tested on: NCI-H2347
Method in brief: as §1

[20] = tested on: NCI-H2023
Method in brief: as §1

[21] = tested on: NCI-H1915
Method in brief: as §1

[22] = tested on: EPLC-272H
Method in brief: as §1

Cc1csc(=NC2CCCCC2)n1/N=C/c1ccc(O)c(O)c1O [MIM1] + O=C(c1cc(Cc2n[nH]c(=O)c3ccccc23)ccc1F)N1CCN(C(=O)C2CC2)CC1 [Olaparib] (partner 8 µM)
relative viability ([1]; first compound 0.2 µM): 0.757 | relative viability ([1]; first compound 0.6325 µM): 0.738 | relative viability ([1]; first compound 2 µM): 0.71 | relative viability ([1]; first compound 6.325 µM): 0.671 | relative viability ([1]; first compound 20 µM): 0.281 | relative viability ([2]; first compound 0.2 µM): 0.432 | relative viability ([2]; first compound 0.6325 µM): 0.386 | relative viability ([2]; first compound 2 µM): 0.42 | relative viability ([2]; first compound 6.325 µM): 0.395 | relative viability ([2]; first compound 20 µM): 0.571 | relative viability ([3]; first compound 0.2 µM): 0.737 | relative viability ([3]; first compound 0.6325 µM): 0.755 | relative viability ([3]; first compound 2 µM): 0.778 | relative viability ([3]; first compound 6.325 µM): 0.307 | relative viability ([3]; first compound 20 µM): 0.17 | relative viability ([4]; first compound 0.2 µM): 0.968 | relative viability ([4]; first compound 0.6325 µM): 0.819 | relative viability ([4]; first compound 2 µM): 0.852 | relative viability ([4]; first compound 6.325 µM): 0.209 | relative viability ([4]; first compound 20 µM): 0.181 | relative viability ([5]; first compound 0.2 µM): 0.469 | relative viability ([5]; first compound 0.6325 µM): 0.368 | relative viability ([5]; first compound 2 µM): 0.454 | relative viability ([5]; first compound 6.325 µM): 0.279 | relative viability ([5]; first compound 20 µM): 0.398 | relative viability ([6]; first compound 0.2 µM): 0.58 | relative viability ([6]; first compound 0.6325 µM): 0.632 | relative viability ([6]; first compound 2 µM): 0.559 | relative viability ([6]; first compound 6.325 µM): 0.496 | relative viability ([6]; first compound 20 µM): 0.132 | relative viability ([7]; first compound 0.2 µM): 0.881 | relative viability ([7]; first compound 0.6325 µM): 0.918 | relative viability ([7]; first compound 2 µM): 0.827 | relative viability ([7]; first compound 6.325 µM): 0.681 | relative viability ([7]; first compound 20 µM): 0.369 | relative viability ([8]; first compound 0.2 µM): 0.616 | relative viability ([8]; first compound 0.6325 µM): 0.683 | relative viability ([8]; first compound 2 µM): 0.665 | relative viability ([8]; first compound 6.325 µM): 0.303 | relative viability ([8]; first compound 20 µM): 0.211 | relative viability ([9]; first compound 0.2 µM): 0.333 | relative viability ([9]; first compound 0.6325 µM): 0.346 | relative viability ([9]; first compound 2 µM): 0.349 | relative viability ([9]; first compound 6.325 µM): 0.242 | relative viability ([9]; first compound 20 µM): 0.209 | relative viability ([10]; first compound 0.2 µM): 0.694 | relative viability ([10]; first compound 0.6325 µM): 0.673 | relative viability ([10]; first compound 2 µM): 0.63 | relative viability ([10]; first compound 6.325 µM): 0.554 | relative viability ([10]; first compound 20 µM): 0.564 | relative viability ([11]; first compound 0.2 µM): 0.708 | relative viability ([11]; first compound 0.6325 µM): 0.685 | relative viability ([11]; first compound 2 µM): 0.682 | relative viability ([11]; first compound 6.325 µM): 0.505 | relative viability ([11]; first compound 20 µM): 0.396 | relative viability ([12]; first compound 0.2 µM): 0.515 | relative viability ([12]; first compound 0.6325 µM): 0.471 | relative viability ([12]; first compound 2 µM): 0.608 | relative viability ([12]; first compound 6.325 µM): 0.321 | relative viability ([12]; first compound 20 µM): 0.1 | relative viability ([13]; first compound 0.2 µM): 0.717 | relative viability ([13]; first compound 0.6325 µM): 0.713 | relative viability ([13]; first compound 2 µM): 0.749 | relative viability ([13]; first compound 6.325 µM): 0.39 | relative viability ([13]; first compound 20 µM): 0.115 | relative viability ([14]; first compound 0.2 µM): 1.02 | relative viability ([14]; first compound 0.6325 µM): 0.975 | relative viability ([14]; first compound 2 µM): 0.859 | relative viability ([14]; first compound 6.325 µM): 0.675 | relative viability ([14]; first compound 20 µM): 0.455 | relative viability ([15]; first compound 0.2 µM): 0.731 | relative viability ([15]; first compound 0.6325 µM): 0.944 | relative viability ([15]; first compound 2 µM): 0.85 | relative viability ([15]; first compound 6.325 µM): 0.609 | relative viability ([15]; first compound 20 µM): 0.237 | relative viability ([16]; first compound 0.2 µM): 0.454 | relative viability ([16]; first compound 0.6325 µM): 0.485 | relative viability ([16]; first compound 2 µM): 0.414 | relative viability ([16]; first compound 6.325 µM): 0.436 | relative viability ([16]; first compound 20 µM): 0.346 | relative viability ([17]; first compound 0.2 µM): 0.436 | relative viability ([17]; first compound 0.6325 µM): 0.46 | relative viability ([17]; first compound 2 µM): 0.343 | relative viability ([17]; first compound 6.325 µM): 0.24 | relative viability ([17]; first compound 20 µM): 0.0564 | relative viability ([18]; first compound 0.2 µM): 0.408 | relative viability ([18]; first compound 0.6325 µM): 0.4 | relative viability ([18]; first compound 2 µM): 0.548 | relative viability ([18]; first compound 6.325 µM): 0.237 | relative viability ([18]; first compound 20 µM): 0.183 | relative viability ([19]; first compound 0.2 µM): 0.525 | relative viability ([19]; first compound 0.6325 µM): 0.559 | relative viability ([19]; first compound 2 µM): 0.653 | relative viability ([19]; first compound 6.325 µM): 0.508 | relative viability ([19]; first compound 20 µM): 0.469 | relative viability ([20]; first compound 0.2 µM): 0.501 | relative viability ([20]; first compound 0.6325 µM): 0.496 | relative viability ([20]; first compound 2 µM): 0.43 | relative viability ([20]; first compound 6.325 µM): 0.255 | relative viability ([20]; first compound 20 µM): 0.0641 | relative viability ([21]; first compound 0.2 µM): 0.255 | relative viability ([21]; first compound 0.6325 µM): 0.248 | relative viability ([21]; first compound 2 µM): 0.236 | relative viability ([21]; first compound 6.325 µM): 0.203 | relative viability ([21]; first compound 20 µM): 0.133 | relative viability ([22]; first compound 0.2 µM): 0.664 | relative viability ([22]; first compound 0.6325 µM): 0.858 | relative viability ([22]; first compound 2 µM): 0.622 | relative viability ([22]; first compound 6.325 µM): 0.111 | relative viability ([22]; first compound 20 µM): 0.108
